Measured values: PubChem BioAssay (NCI)
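Five compound concentrations were applied to cells in 96-well plates for 48 hours; endpoints were derived by simple linear interpolation of the resulting dose-response curve. Here, GI50 denotes the concentration required for 50% inhibition of growth. Definition used: TGI = concentration required for complete inhibition of growth.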

Assays:
Assay in all cases: NCI-60 cell line screen, 48 h
786-0 renal = test system: 786-0 renal
A498 renal = test system: A498 renal
A549 NSCLC = test system: A549 NSCLC
ACHN renal = test system: ACHN renal
BT-549 breast = test system: BT-549 breast
CAKI-1 renal = test system: CAKI-1 renal
CCRF-CEM leukemia = test system: CCRF-CEM leukemia
COLO 205 colon = test system: COLO 205 colon
DU-145 prostate = test system: DU-145 prostate
EKVX NSCLC = test system: EKVX NSCLC
HCC-2998 colon = test system: HCC-2998 colon
HCT-116 colon = test system: HCT-116 colon
HCT-15 colon = test system: HCT-15 colon
HL-60(TB) leukemia = test system: HL-60(TB) leukemia
HOP-62 NSCLC = test system: HOP-62 NSCLC
HOP-92 NSCLC = test system: HOP-92 NSCLC
HS 578T breast = test system: HS 578T breast
HT29 colon = test system: HT29 colon
IGROV1 ovarian = test system: IGROV1 ovarian
K-562 leukemia = test system: K-562 leukemia
KM12 colon = test system: KM12 colon
LOX IMVI melanoma = test system: LOX IMVI melanoma
M14 melanoma = test system: M14 melanoma
MALME-3M melanoma = test system: MALME-3M melanoma
MCF7 breast = test system: MCF7 breast
MDA-MB-231 breast = test system: MDA-MB-231 breast
MDA-MB-435 = test system: MDA-MB-435
MOLT-4 leukemia = test system: MOLT-4 leukemia
NCI-H226 lung = test system: NCI-H226 lung
NCI-H23 lung = test system: NCI-H23 lung
NCI-H460 lung = test system: NCI-H460 lung
NCI-H522 lung = test system: NCI-H522 lung
NCI/ADR-RES ovarian = test system: NCI/ADR-RES ovarian
OVCAR-3 ovarian = test system: OVCAR-3 ovarian
OVCAR-4 ovarian = test system: OVCAR-4 ovarian
OVCAR-5 ovarian = test system: OVCAR-5 ovarian
OVCAR-8 ovarian = test system: OVCAR-8 ovarian
PC-3 prostate = test system: PC-3 prostate
RPMI-8226 leukemia = test system: RPMI-8226 leukemia
RXF 393 renal = test system: RXF 393 renal
SF-268 CNS = test system: SF-268 CNS
SF-295 CNS = test system: SF-295 CNS
SF-539 CNS = test system: SF-539 CNS
SK-MEL-2 melanoma = test system: SK-MEL-2 melanoma
SK-MEL-28 melanoma = test system: SK-MEL-28 melanoma
SK-MEL-5 melanoma = test system: SK-MEL-5 melanoma
SK-OV-3 ovarian = test system: SK-OV-3 ovarian
SN12C renal = test system: SN12C renal
SNB-19 CNS = test system: SNB-19 CNS
SNB-75 CNS = test system: SNB-75 CNS
SR leukemia = test system: SR leukemia
SW-620 colon = test system: SW-620 colon
T-47D breast = test system: T-47D breast
TK-10 renal = test system: TK-10 renal
U251 CNS = test system: U251 CNS
UACC-257 melanoma = test system: UACC-257 melanoma
UACC-62 melanoma = test system: UACC-62 melanoma
UO-31 renal = test system: UO-31 renal

In the case of `COc1ccc(C(=O)Nc2ncc(Cc3ccccc3Cl)s2)cc1`, the GI50 (786-0 renal) is reported as 0.4 µM, the TGI (786-0 renal) is reported as 22.6 µM and the GI50 (A498 renal) is reported as 6.54 µM. For the same compound, the TGI (A498 renal) was 33.7 µM, the GI50 (A549 NSCLC) was 0.435 µM and the TGI (A549 NSCLC) was > 47.4 µM. It also gave a GI50 (ACHN renal) of 0.502 µM, a TGI (ACHN renal) of 18.3 µM and a GI50 (BT-549 breast) of 0.427 µM. For the same compound, the TGI (BT-549 breast) was 11 µM, the GI50 (CAKI-1 renal) was 0.138 µM and the TGI (CAKI-1 renal) was 16.6 µM. The GI50 (CCRF-CEM leukemia) was 0.148 µM, the TGI (CCRF-CEM leukemia) was > 100 µM and the GI50 (COLO 205 colon) was 0.264 µM. It also gave a TGI (COLO 205 colon) of 1.03 µM, a GI50 (DU-145 prostate) of 0.415 µM and a TGI (DU-145 prostate) of 14.2 µM. It also gave a GI50 (EKVX NSCLC) of 1.79 µM, a TGI (EKVX NSCLC) of 38.6 µM and a GI50 (HCC-2998 colon) of 0.24 µM. It also gave a TGI (HCC-2998 colon) of 3.66 µM, a GI50 (HCT-116 colon) of 0.114 µM and a TGI (HCT-116 colon) of 15.7 µM. The GI50 (HCT-15 colon) was 0.0593 µM, the TGI (HCT-15 colon) was 13.2 µM and the GI50 (HL-60(TB) leukemia) was 0.0873 µM. The TGI (HL-60(TB) leukemia) was 1.95 µM, the GI50 (HOP-62 NSCLC) was 0.667 µM and the TGI (HOP-62 NSCLC) was 18.7 µM. For the same compound, the GI50 (HOP-92 NSCLC) was 11.8 µM, the TGI (HOP-92 NSCLC) was > 80.2 µM and the GI50 (HS 578T breast) was 0.309 µM. For the same compound, the TGI (HS 578T breast) was 23.6 µM, the GI50 (HT29 colon) was 0.128 µM and the TGI (HT29 colon) was 2.23 µM. It also gave a GI50 (IGROV1 ovarian) of 0.486 µM, a TGI (IGROV1 ovarian) of 26.8 µM and a GI50 (K-562 leukemia) of 0.06 µM. The TGI (K-562 leukemia) was > 100 µM, the GI50 (KM12 colon) was 0.14 µM and the TGI (KM12 colon) was 23 µM. For the same compound, the GI50 (LOX IMVI melanoma) was 0.259 µM, the TGI (LOX IMVI melanoma) was > 35 µM and the GI50 (M14 melanoma) was 0.162 µM. The TGI (M14 melanoma) was > 36.6 µM, the GI50 (MALME-3M melanoma) was 1.12 µM and the TGI (MALME-3M melanoma) was 23.1 µM. For the same compound, the GI50 (MCF7 breast) was 0.137 µM, the TGI (MCF7 breast) was > 34.5 µM and the GI50 (MDA-MB-231 breast) was 0.437 µM. It also gave a TGI (MDA-MB-231 breast) of 20 µM, a GI50 (MDA-MB-435) of 0.0316 µM and a TGI (MDA-MB-435) of 0.122 µM. The GI50 (MOLT-4 leukemia) was 0.266 µM, the TGI (MOLT-4 leukemia) was > 100 µM and the GI50 (NCI-H226 lung) was 0.283 µM. For the same compound, the TGI (NCI-H226 lung) was 2.53 µM, the GI50 (NCI-H23 lung) was 0.625 µM and the TGI (NCI-H23 lung) was 30.5 µM. For the same compound, the GI50 (NCI-H460 lung) was 0.147 µM, the TGI (NCI-H460 lung) was 5.2 µM and the GI50 (NCI-H522 lung) was 0.118 µM. The TGI (NCI-H522 lung) was 0.387 µM, the GI50 (NCI/ADR-RES ovarian) was 0.145 µM and the TGI (NCI/ADR-RES ovarian) was 3.79 µM. For the same compound, the GI50 (OVCAR-3 ovarian) was 0.191 µM, the TGI (OVCAR-3 ovarian) was 5.22 µM and the GI50 (OVCAR-4 ovarian) was 2.07 µM. For the same compound, the TGI (OVCAR-4 ovarian) was 30 µM, the GI50 (OVCAR-5 ovarian) was 0.406 µM and the TGI (OVCAR-5 ovarian) was 22.6 µM. For the same compound, the GI50 (OVCAR-8 ovarian) was 0.462 µM, the GI50 (PC-3 prostate) was 0.274 µM and the TGI (PC-3 prostate) was > 68.4 µM. The GI50 (RPMI-8226 leukemia) was 0.27 µM, the TGI (RPMI-8226 leukemia) was > 100 µM and the GI50 (RXF 393 renal) was 0.126 µM. For the same compound, the TGI (RXF 393 renal) was 1.41 µM, the GI50 (SF-268 CNS) was 1.58 µM and the TGI (SF-268 CNS) was 58.3 µM. The GI50 (SF-295 CNS) was 0.214 µM, the TGI (SF-295 CNS) was 6.43 µM and the GI50 (SF-539 CNS) was 0.179 µM. The TGI (SF-539 CNS) was 0.842 µM, the GI50 (SK-MEL-2 melanoma) was 0.176 µM and the TGI (SK-MEL-2 melanoma) was 3.83 µM. The GI50 (SK-MEL-28 melanoma) was 1.55 µM, the TGI (SK-MEL-28 melanoma) was > 66.4 µM and the GI50 (SK-MEL-5 melanoma) was 0.307 µM. It also gave a TGI (SK-MEL-5 melanoma) of 6.44 µM, a GI50 (SK-OV-3 ovarian) of 0.372 µM and a TGI (SK-OV-3 ovarian) of 16.6 µM. The GI50 (SN12C renal) was 0.309 µM, the TGI (SN12C renal) was 20.4 µM and the GI50 (SNB-19 CNS) was 0.404 µM. The TGI (SNB-19 CNS) was 19.2 µM, the GI50 (SNB-75 CNS) was 0.201 µM and the TGI (SNB-75 CNS) was 6.02 µM. For the same compound, the GI50 (SR leukemia) was 0.0398 µM, the TGI (SR leukemia) was > 100 µM and the GI50 (SW-620 colon) was 0.106 µM. For the same compound, the TGI (SW-620 colon) was > 100 µM, the GI50 (T-47D breast) was 2.09 µM and the TGI (T-47D breast) was > 56.7 µM. For the same compound, the GI50 (TK-10 renal) was 11.9 µM, the TGI (TK-10 renal) was 41.1 µM and the GI50 (U251 CNS) was 0.288 µM. For the same compound, the TGI (U251 CNS) was 23.1 µM, the GI50 (UACC-257 melanoma) was 5.87 µM and the TGI (UACC-257 melanoma) was > 65.5 µM. The GI50 (UACC-62 melanoma) was 0.127 µM, the TGI (UACC-62 melanoma) was 16.3 µM and the GI50 (UO-31 renal) was 0.696 µM. The TGI (UO-31 renal) was 38.1 µM.
